# Laboratory results reported in PMC9742383, “From tryptamine to the discovery of efficient multi-target directed ligands against cholinesterase-associated neurodegenerative disorders” (Frontiers in Pharmacology, 2022).
# Like-named read-outs stand apart in the source and are kept apart here.
# Columns and labels:
# [1] = biological target: T1, AChE (Electrophorus electricus, UniProt O42275); assay: Ellman colorimetric assay; assay type: biochemical
# T1 construct: native enzyme, Type V-S lyophilized powder, Sigma-Aldrich
# T1 sequence (O42275 24-633): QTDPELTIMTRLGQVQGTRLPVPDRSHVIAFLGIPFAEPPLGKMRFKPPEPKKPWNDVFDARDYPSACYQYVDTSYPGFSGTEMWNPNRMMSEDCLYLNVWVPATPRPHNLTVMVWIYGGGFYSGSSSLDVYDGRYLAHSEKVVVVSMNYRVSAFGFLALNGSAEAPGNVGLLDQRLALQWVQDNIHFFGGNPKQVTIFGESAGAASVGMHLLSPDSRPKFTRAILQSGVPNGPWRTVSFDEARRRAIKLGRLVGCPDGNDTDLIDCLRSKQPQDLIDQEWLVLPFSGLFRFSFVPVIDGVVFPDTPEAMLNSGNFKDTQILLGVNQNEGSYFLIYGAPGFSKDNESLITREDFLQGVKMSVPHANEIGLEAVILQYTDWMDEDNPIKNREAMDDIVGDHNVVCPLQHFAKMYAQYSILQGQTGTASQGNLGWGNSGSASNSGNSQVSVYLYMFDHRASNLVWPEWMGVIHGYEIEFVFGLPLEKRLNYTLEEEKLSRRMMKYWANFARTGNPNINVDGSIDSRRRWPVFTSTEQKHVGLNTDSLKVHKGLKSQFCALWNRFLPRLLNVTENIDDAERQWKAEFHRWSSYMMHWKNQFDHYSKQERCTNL
# [2] = in vitro; set-up: MTT cytotoxicity, absorbance at 570 nm, HT-22 mouse hippocampal neuronal cells; conditions: mouse, read-out: IC50 ± SD / HT-22 ^a
# Protocol: The cell lines present in this study were purchased from the China Center for Type Collection (CCTCC, China). For cytotoxicity assay, HT-22, BV2, SH-SY5Y, HepG2, and LO2 cells were incubated in 96-well plates at the density of 5 × 10³ per well. After incubation for 12 h at 37°C, the tested compounds with the required concentrations were added to the corresponding wells and continuously incubated for 24 h at 37°C. Then, the prepared MTT (3-[4,5-dimethyl-2-thiazolyl]-2,5-diphenyl-2H-tetrazolium bromide) solution was added to each well and co-incubated for another 4 h at 37°C. Then, the supernatant was removed, and 100 μl DMSO was added to each well. The OD value of each well was detected at 570 nm using a microplate reader (Bio-Rad Laboratories, CA, United States). The IC50 values were calculated using IBM SPSS Statistics 25.0 software. All experiments were performed in triplicate, and the results were shown as the mean ± SD. In order to explore the applicability of the synthesized CTDs in neurological diseases, the neuronal cytotoxicity of the synthesized compounds was evaluated on mouse hippocampal neuronal cell line HT-22. […] In view of these CTDs endowed strong inhibition efficacy on BuChE, we preliminarily evaluated their safety range by comparing their IC50 values on cytotoxicity and BuChE inhibitory activity. […] Therefore, the series of compounds with dibenzyl groups, especially compounds bearing ring carbon alkyl chains (2f-2h) and tertiary amine residues (2j-2u) with little cytotoxicity on HT-22, can be considered as potential lead building blocks for further structure optimization to develop novel effective agents against neurological diseases.
# [3] = biological target: T2, BuChE (Equus caballus, UniProt P81908); assay: time-dependent Ellman assay, kobs analysis; set-up: gene BCHE; conditions: read-out: kc; equilibrium constant of reversible step before carbamylation; covalent
# T2 sequence (P81908 whole entry): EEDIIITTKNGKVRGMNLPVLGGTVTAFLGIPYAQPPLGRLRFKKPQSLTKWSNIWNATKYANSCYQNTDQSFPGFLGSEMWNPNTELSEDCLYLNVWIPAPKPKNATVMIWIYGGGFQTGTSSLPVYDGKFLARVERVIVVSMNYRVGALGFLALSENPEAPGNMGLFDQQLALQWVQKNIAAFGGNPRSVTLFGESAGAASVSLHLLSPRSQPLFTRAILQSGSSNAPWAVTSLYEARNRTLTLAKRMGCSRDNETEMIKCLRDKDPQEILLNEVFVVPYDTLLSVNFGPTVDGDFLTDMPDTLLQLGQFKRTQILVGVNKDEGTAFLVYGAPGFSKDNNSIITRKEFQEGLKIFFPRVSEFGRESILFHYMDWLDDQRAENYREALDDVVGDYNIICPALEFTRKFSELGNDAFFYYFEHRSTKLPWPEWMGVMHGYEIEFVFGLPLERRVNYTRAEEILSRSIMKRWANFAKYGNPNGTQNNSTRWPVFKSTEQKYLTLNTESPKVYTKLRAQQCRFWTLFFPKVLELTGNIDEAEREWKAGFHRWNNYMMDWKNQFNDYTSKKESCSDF
# [4] = biological target: T2, BuChE; assay: Ellman colorimetric assay; assay type: biochemical; set-up: gene BCHE; native enzyme from equine serum, purchased from Sigma-Aldrich
# [5] = in vitro; set-up: species or system LO2, HepG2; MTT cytotoxicity, absorbance at 570 nm; conditions: human, sh-sy5y; read-out: ^a IC50 ± SD (μM) / SH-SY5Y
# Protocol: (§1) The cell lines present in this study were purchased from the China Center for Type Collection (CCTCC, China). For cytotoxicity assay, HT-22, BV2, SH-SY5Y, HepG2, and LO2 cells were incubated in 96-well plates at the density of 5 × 10³ per well. After incubation for 12 h at 37°C, the tested compounds with the required concentrations were added to the corresponding wells and continuously incubated for 24 h at 37°C. Then, the prepared MTT (3-[4,5-dimethyl-2-thiazolyl]-2,5-diphenyl-2H-tetrazolium bromide) solution was added to each well and co-incubated for another 4 h at 37°C. Then, the supernatant was removed, and 100 μl DMSO was added to each well. The OD value of each well was detected at 570 nm using a microplate reader (Bio-Rad Laboratories, CA, United States). The IC50 values were calculated using IBM SPSS Statistics 25.0 software. All experiments were performed in triplicate, and the results were shown as the mean ± SD. In order to further evaluate the applicability of the compounds with dibenzyl groups for neurological diseases, we also tested the cytotoxicity of the selected compounds (2f, 2h, 2j, 2m, 2o-2r, 2t, and 2u) bearing little toxicity on HT-22 cells, microglia cell line BV2, and human neuroblastoma cell line SH-SY5Y, which are widely used in the study of neurological diseases. […] In view of some carbamate-based ChE inhibitors reported to be hepatotoxic, we further performed the preliminary evaluation of the hepatotoxicity of the selected compounds on human normal liver cell line LO2 and human hepatocellular carcinoma cell line HepG2.
# [6] = in vitro; set-up: species or system SH-SY5Y, HepG2; MTT cytotoxicity, absorbance at 570 nm; conditions: human, lo2 cells; read-out: ^a IC50 ± SD (μM) / LO2
# Protocol: as §1
# [7] = in vitro; set-up: species or system SH-SY5Y, LO2; MTT cytotoxicity, absorbance at 570 nm; conditions: human, read-out: ^a IC50 ± SD (μM) / HepG2
# Protocol: as §1
# [8] = read-out: IC50 ± SD ^a / AChE ^a
# [9] = ht-22 hippocampal neuronal cells
# [10] = read-out: IC50 ± SD ^a / BuChE ^a
structure (smiles),measurement,setting,value
"CCCCCNC(=O)Oc1ccc2[nH]cc(CCN(Cc3ccccc3)Cc3ccccc3)c2c1 [2c, 3-(2-(dibenzylamino)ethyl)-1H-indol-5-yl pentylcarbamate]",IC50,[1]; read-out: IC50 ± SD / AChE ^a,> 100 µM
same,CC50 at 24 h,[2]; ht-22,37.47 ± 0.23 µM
same,KI (inactivation),[3],0.00705 µM
same,IC50,[4]; read-out: IC50 ± SD / BuChE ^a,0.0021 ± 0.00014 µM
"CCCCCCCNC(=O)Oc1ccc2[nH]cc(CCN(Cc3ccccc3)Cc3ccccc3)c2c1 [2e, 3-(2-(dibenzylamino)ethyl)-1H-indol-5-yl heptylcarbamate]",IC50,[1]; read-out: IC50 ± SD / AChE ^a,> 100 µM
same,CC50 at 24 h,[2]; ht-22,35.6 ± 2.45 µM
same,KI (inactivation),[3],0.00255 µM
same,IC50,[4]; read-out: IC50 ± SD / BuChE ^a,0.00142 ± 4e-06 µM
"O=C(NC1CC1)Oc1ccc2[nH]cc(CCN(Cc3ccccc3)Cc3ccccc3)c2c1 [2f, 3-(2-(dibenzylamino)ethyl)-1H-indol-5-yl cyclopropylcarbamate]",IC50,[1]; read-out: IC50 ± SD / AChE ^a,> 100 µM
same,CC50 at 24 h,[2]; ht-22,60.2 ± 3.85 µM
same,KI (inactivation),[3],0.00159 µM
same,IC50,[4]; read-out: IC50 ± SD / BuChE ^a,0.00875 ± 0.00023 µM
"O=C(NC1CCCCC1)Oc1ccc2[nH]cc(CCN(Cc3ccccc3)Cc3ccccc3)c2c1 [2h, 3-(2-(dibenzylamino)ethyl)-1H-indol-5-yl cyclohexylcarbamate]",IC50,[1]; read-out: IC50 ± SD / AChE ^a,> 100 µM
same,CC50 at 24 h,[5],> 100 µM
same,CC50 at 24 h,[6],> 100 µM
same,CC50 at 24 h,[2]; ht-22,74.2 ± 1.5 µM
same,IC50,[4]; read-out: IC50 ± SD / BuChE ^a,0.016 ± 0.00032 µM
"CN(C)C(=O)Oc1ccc2[nH]cc(CCN(Cc3ccccc3)Cc3ccccc3)c2c1 [2j, 3-(2-(dibenzylamino)ethyl)-1H-indol-5-yl dimethylcarbamate]",IC50,[1]; read-out: IC50 ± SD / AChE ^a,> 100 µM
same,CC50 at 24 h,[5],> 100 µM
same,CC50 at 24 h,[6],> 100 µM
same,CC50 at 24 h,[7]; hepg2,> 100 µM
same,CC50 at 24 h,[2]; ht-22,> 100 µM
same,IC50,[4]; read-out: IC50 ± SD / BuChE ^a,0.00677 ± 0.00027 µM
"CCCCN(CCCC)C(=O)Oc1ccc2[nH]cc(CCN(Cc3ccccc3)Cc3ccccc3)c2c1 [2m, 3-(2-(dibenzylamino)ethyl)-1H-indol-5-yl dibutylcarbamate]",IC50,[1]; read-out: IC50 ± SD / AChE ^a,> 100 µM
same,CC50 at 24 h,[5],> 100 µM
same,CC50 at 24 h,[6],> 100 µM
same,CC50 at 24 h,[7]; hepg2,> 100 µM
same,CC50 at 24 h,[2]; ht-22,65.28 ± 0.09 µM
same,IC50,[4]; read-out: IC50 ± SD / BuChE ^a,0.0138 ± 0.00067 µM
"CN(C(=O)Oc1ccc2[nH]cc(CCN(Cc3ccccc3)Cc3ccccc3)c2c1)c1ccccc1 [2p, 3-(2-(dibenzylamino)ethyl)-1H-indol-5-yl methyl(phenyl)carbamate]",IC50,[1]; read-out: IC50 ± SD / AChE ^a,> 100 µM
same,CC50 at 24 h,[5],> 100 µM
same,CC50 at 24 h,[6],> 100 µM
same,CC50 at 24 h,[7]; hepg2 cells,> 100 µM
same,CC50 at 24 h,[2]; ht-22,> 100 µM
same,IC50,[4]; read-out: IC50 ± SD / BuChE ^a,0.0189 ± 0.00134 µM
"O=C(Oc1ccc2[nH]cc(CCN(Cc3ccccc3)Cc3ccccc3)c2c1)N1CCC1 [2q, 3-(2-(dibenzylamino)ethyl)-1H-indol-5-yl azetidine-1-carboxylate]",IC50,[1]; read-out: IC50 ± SD / AChE ^a,0.742 ± 0.00987 µM
same,CC50 at 24 h,[7]; hepg2 cells,> 100 µM
same,CC50 at 24 h,[2]; ht-22,86.5 ± 1.82 µM
same,IC50,[4]; read-out: IC50 ± SD / BuChE ^a,0.00165 ± 3e-05 µM
"O=C(Oc1ccc2[nH]cc(CCN(Cc3ccccc3)Cc3ccccc3)c2c1)N1CCCC1 [2r, 3-(2-(dibenzylamino)ethyl)-1H-indol-5-yl pyrrolidine-1-carboxylate]",IC50,[1]; read-out: IC50 ± SD / AChE ^a,> 100 µM
same,CC50 at 24 h,[5],> 100 µM
same,CC50 at 24 h,[6],> 100 µM
same,CC50 at 24 h,[7]; hepg2,> 100 µM
same,CC50 at 24 h,[2]; ht-22,79.8 ± 5.36 µM
same,IC50,[4]; read-out: IC50 ± SD / BuChE ^a,0.0205 ± 0.0017 µM
"O=C(Oc1ccc2[nH]cc(CCN(Cc3ccccc3)Cc3ccccc3)c2c1)N1CCCCCC1 [2t, 3-(2-(dibenzylamino)ethyl)-1H-indol-5-yl azepane-1-carboxylate]",IC50,[1]; read-out: IC50 ± SD / AChE ^a,> 100 µM
same,CC50 at 24 h,[6],> 100 µM
same,CC50 at 24 h,[7]; hepg2,> 100 µM
same,CC50 at 24 h,[2]; ht-22,> 100 µM
same,IC50,[4]; read-out: IC50 ± SD / BuChE ^a,0.068 ± 0.00842 µM
"O=C(Oc1ccc2[nH]cc(CCN(Cc3ccccc3)Cc3ccccc3)c2c1)N1CCOCC1 [2u, 3-(2-(dibenzylamino)ethyl)-1H-indol-5-yl morpholine-4-carboxylate]",IC50,[1]; read-out: IC50 ± SD / AChE ^a,> 100 µM
same,CC50 at 24 h,[5],> 100 µM
same,CC50 at 24 h,[6],> 100 µM
same,CC50 at 24 h,[7]; hepg2,> 100 µM
same,CC50 at 24 h,[2]; ht-22,78.7 ± 3.79 µM
same,IC50,[4]; read-out: IC50 ± SD / BuChE ^a,0.114 ± 0.00145 µM
"CCCCCNC(=O)Oc1ccc2[nH]cc(CCNCc3ccccc3)c2c1 [3c, 3-(2-(benzylamino)ethyl)-1H-indol-5-yl pentylcarbamate]",IC50,[1]; [8],1.13 µM
same,CC50 at 24 h,[2]; [9],10.6 ± 0.24 µM
same,KI (inactivation),[3],0.0737 µM
same,IC50,[4]; [10],0.0239 ± 0.0029 µM
"O=C(NC1CC1)Oc1ccc2[nH]cc(CCNCc3ccccc3)c2c1 [3f, 3-(2-(benzylamino)ethyl)-1H-indol-5-yl cyclopropylcarbamate]",IC50,[1]; [8],3.17 µM
same,CC50 at 24 h,[2]; [9],15 ± 1.17 µM
same,KI (inactivation),[3],0.00576 µM
same,IC50,[4]; [10],0.0157 ± 0.0013 µM
"O=C(Oc1ccc2[nH]cc(CCNCc3ccccc3)c2c1)N1CCCCC1 [3s, 3-(2-(benzylamino)ethyl)-1H-indol-5-yl piperidine-1-carboxylate]",IC50,[1]; [8],9.08 µM
same,CC50 at 24 h,[2]; [9],13.8 ± 0.91 µM
same,KI (inactivation),[3],0.00508 µM
same,IC50,[4]; [10],0.0339 ± 0.00214 µM
"CCCCCCCNC(=O)Oc1ccc2[nH]cc(CCN)c2c1 [4e, 3-(2-aminoethyl)-1H-indol-5-yl heptylcarbamate]",IC50,"[1]; ATCI substrate, […] min preincubation […] °C, pH […], read-out: IC50 ± SD ^a / AChE ^a",> 100 µM
same,CC50 at 24 h,[2]; [9],26.1 ± 2.29 µM
same,KI (inactivation),[3],0.00302 µM
same,IC50,"[4]; BTCI substrate, […] min preincubation […] °C, pH […], pseudo-irreversible carbamate, covalent, read-out: IC50 ± SD ^a / BuChE ^a",0.0101 ± 0.00083 µM
CCN(C)C(=O)Oc1cccc([C@H](C)N(C)C)c1 [rivastigmine],CC50 at 24 h,[5],> 100 µM
same,CC50 at 24 h,[6],> 100 µM
same,CC50 at 24 h,[7]; hepg2,> 100 µM
same,KI (inactivation),[3],0.0559 µM
